In patent US20030203410A1, “Gestational agents which modulate cell proliferation” (priority 1999, published 2003) one finds CC50, EC50 and COMMENT data, which are given here for three compounds.

Structures are written as SMILES. Values after ≈ are worked out from the molar mass of the structure shown.

The nature of data set [1]: in vitro. Conditions: human.
The subject of data set [2] is Herpes Simplex Type I. Nature of the data set: Inhibition of viral cytopathic effect (visual CPE and neutral red), HSV-1 in MRC-5 cells. The class given is cell-based, type 1 herpes (HSV-1). Conditions: for EC50: EXPT EV/H1C2.
The subject of data set [3] is Vaccinia Virus. Description: microbe, parasite or virus in culture. Conditions: for EC50: Orthopoxvirus vaccinia, EXPT EV/VC2. The format is cell-based.
Data set [4] can be described thus: in vitro. The conditions noted are these: African green monkey.
The subject of data set [5] is African green monkey kidney (Vero) cells.
The test system of data set [6] is Simian Rotavirus. Description: Inhibition of viral cytopathic effect (visual CPE and neutral red), simian rotavirus in MA104 cells. The format is cell-based. The conditions noted are these: for EC50: Rotavirus A, EXPT EV/RtC2.
A short description of data set [7]: in vitro. The conditions noted are these: African green monkey. This is another data set of the same source.
Data set [8] concerns Venezuelan Equine Encephalitis. Description: microbe, parasite or virus in culture. The class given is cell-based, Venezuelan equine encephalitis virus. The conditions noted are these: for EC50: Venezuelan equine encephalitis virus, EXPT EV/VEC4.
Data set [9] is described as follows: in vitro. Conditions: African green monkey. This is another data set of the same source.
The nature of data set [10]: in vitro. The conditions noted are these: African green monkey. This is another data set of the same source.
Data set [11] deals with San Angelo Virus. Nature of the data set: microbe, parasite or virus in culture. The class given is cell-based.

On to `Nc1nc2c(ncn2COCCO)c(=O)[nH]1` [Acyclovir, acyclovir], for which the CC50 in [1] was over 100 µg/mL. Moreover, the EC50 in [2] (Human alphaherpesvirus 1, MRC5, neutral red assay) came to 0.4 µg/mL (≈ 1.78 µM); in data set [2] (Human alphaherpesvirus 1, MRC5, visual CPE) it was 0.6 µg/mL (≈ 2.66 µM). Further, the COMMENT entry in data set [2] (neutral red assay) and in data set [2] (visual) was “Excellent activity” each time.
Take `Nc1ccn(C[C@@H](CO)OCP(=O)(O)O)c(=O)n1` [HPMPC, cidofovir]: the EC50 in data set [3] (CV-1, neutral red assay) worked out at 1.7 µg/mL (≈ 6.09 µM); in data set [3] (CV-1, visual CPE) it was 5.4 µg/mL (≈ 19.3 µM). Moreover, the COMMENT entry is given as “Excellent activity” in data set [3] (neutral red assay) and “Very good activity” in data set [3] (visual). For the same compound, the CC50 in data set [4] was over 100 µg/mL.
For the compound `NC(=O)c1ncn([C@@H]2O[C@H](CO)[C@@H](O)[C@H]2O)n1` [Ribavirin, ribavirin], the CC50 was 530 µg/mL (≈ 2170 µM) in data set [5], over 100 µg/mL in [7], 560 µg/mL (≈ 2290 µM) in [9] and over 100 µg/mL in data set [10]. For the same compound, the concentration giving a half-maximal response (EC50) in [6] (MA104, neutral red assay) is 56 µg/mL (≈ 229 µM); in data set [6] (MA104, visual CPE), 18 µg/mL (≈ 73.7 µM); in data set [8] (MA104, neutral red assay, neutral red data questionable) it was over 100 µg/mL; in data set [8] (MA104, visual CPE) it was 7.6 µg/mL (≈ 31.1 µM); in data set [11] (San Angelo virus, Vero) it was 30 µg/mL (≈ 123 µM). Moreover, the COMMENT entry in [6] (neutral red assay) is listed as “Slight activity”; in [6] (visual), “Moderate activity”; in data set [8] (visual) it was “Very good activity”; in data set [11] it was “Very good activity”.
